Several values for one entry are separate records, joined by “and”; a condition that tells them apart may be missing. Equal entries are not always repeated.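 Five compound concentrations were applied to cells in 96-well plates for 48 hours; endpoints were derived by simple linear interpolation of the resulting dose-response curve. The concentration for 50% growth inhibition is given as GI50. At the TGI there is no net growth.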
What was measured:
Assay in all cases: NCI anticancer screen, dose series, 48 h
UACC-257 melanoma = tested on: UACC-257 melanoma
SR leukemia = tested on: SR leukemia
A498 renal = tested on: A498 renal
OVCAR-8 ovarian = tested on: OVCAR-8 ovarian
786-0 renal = tested on: 786-0 renal
OVCAR-3 ovarian = tested on: OVCAR-3 ovarian
CAKI-1 renal = tested on: CAKI-1 renal
HCT-15 colon = tested on: HCT-15 colon
BT-549 breast = tested on: BT-549 breast
MDA-MB-435 = tested on: MDA-MB-435

Compound	TGI (UACC-257 melanoma)	TGI (SR leukemia)	TGI (A498 renal)	TGI (OVCAR-8 ovarian)	TGI (786-0 renal)	TGI (OVCAR-3 ovarian)	TGI (CAKI-1 renal)	TGI (HCT-15 colon)	TGI (BT-549 breast)	TGI (MDA-MB-435)	GI50 (UACC-257 melanoma)	GI50 (SR leukemia)	GI50 (A498 renal)	GI50 (OVCAR-8 ovarian)	GI50 (786-0 renal)	GI50 (OVCAR-3 ovarian)	GI50 (CAKI-1 renal)	GI50 (HCT-15 colon)	GI50 (BT-549 breast)	GI50 (MDA-MB-435) [µM]
CCCC(=O)Nc1cc([N+](=O)[O-])c([N+](=O)[O-])cc1OC	35.4 µM	21.5 µM	32.5 µM	34.2 µM	> 100 µM	27.8 µM	29.5 µM	> 100 µM	31 µM	33.3 µM										
CC(C)(C)c1cn2cccc(C(=O)N3CCN(CC(=O)Nc4ccc(Cl)cc4C(=O)c4ccccc4Cl)CC3)c2n1	23.5 µM	> 100 µM	9.38 µM	77.4 µM	85.2 µM	15.5 µM	14.2 µM	32 µM	19.7 µM	21.6 µM	3.51 µM	> 100 µM	3.48 µM	6.84 µM	24.4 µM	3.71 µM	3.31 µM	4.81 µM	3.8 µM	6.39
O=C(Nc1cccc([N+](=O)[O-])c1)c1ccc2ccccc2c1O	7.34 µM	> 29.1 µM	> 66.7 µM	> 100 µM	> 100 µM	8.83 µM	> 38.4 µM	> 78.3 µM	5.53 µM	> 100 µM	2.42 µM	3.94 µM	3.27 µM	9.66 µM	4.46 µM	2.61 µM	2.48 µM	9 µM	1.75 µM	3.47
COc1cc(OC)c2cc(C(=O)O)c(=O)oc2c1	> 100 µM	> 100 µM	> 75 µM	> 100 µM	> 100 µM	> 100 µM	> 100 µM	> 100 µM	> 100 µM	> 100 µM	> 85.9 µM	> 100 µM	> 21.4 µM	> 100 µM	> 95.4 µM	> 100 µM	61.4 µM	> 100 µM	> 100 µM	> 100
COc1ccc2cc3[n+](cc2c1OC)CCc1cc2c(cc1-3)OCO2		> 100 µM and 71.5 µM and > 75.6 µM	> 307 µM		> 100 µM		> 100 µM and 210 µM	> 325 µM	> 100 µM and 56.9 µM	25.8 µM and 27 µM and 40.5 µM				3.69 µM	72.7 µM		> 100 µM and 16.8 µM and 65 µM	> 100 µM and 216 µM	3.71 µM and 2.59 µM and 5.39 µM	7.35
COc1cc(/C=C/C(=O)C(C(=O)/C=C/c2ccc(OC(=O)CCNc3nnc(C)s3)c(OC)c2)C(=O)CCNc2nnc(C)s2)ccc1OC(=O)CCNc1nnc(C)s1	8.31 µM	3.31 µM	6.67 µM	16.7 µM	9.51 µM	6.95 µM	> 34.2 µM	5.86 µM	5.77 µM	6.98 µM	2.64 µM	1.18 µM	2.51 µM	2.93 µM	2.58 µM	2.4 µM	2.86 µM	2.47 µM	2.36 µM	2.06
COC(=O)c1oc2c(O)c(OC)c(Br)cc2c1C	99.6 µM	18.2 µM	65.8 µM	91.7 µM	32.4 µM	43.5 µM	> 100 µM	35.5 µM	42.6 µM	65.4 µM	24.5 µM	0.354 µM	32.7 µM	28.7 µM	18.2 µM	23.6 µM	43.4 µM	17.6 µM	17.7 µM	29
CC1CC(C)/C(=N/NC(N)=O)C(C(O)CC2CCC(=O)NC2=O)C1 (centres undefined)	50.4 µM	> 100 µM	92.4 µM	57.5 µM	> 100 µM	48.1 µM	20.3 µM	> 100 µM	> 100 µM	97 µM	3.48 µM	8.1 µM	4.94 µM	2.71 µM	3.46 µM	5.54 µM	1.22 µM	3.39 µM	7.08 µM	3.3
CC(C)=CC(O)C/C(C)=C/CC/C(C)=C/CCC1(C)C(CCCO)/C(=C(/C)C=O)CCC1(C)O (centres undefined)	> 100 µM	83.3 µM	> 100 µM	> 100 µM	> 100 µM	> 100 µM	> 100 µM	> 100 µM	> 100 µM	> 100 µM										
O=C(Nc1ccc(Cl)cc1)c1ccc([N+](=O)[O-])o1	5.25 µM	16.5 µM	14.8 µM	12.8 µM	4.05 µM	9.4 µM	10.1 µM	3.43 µM	4.06 µM	6.2 µM	1.97 µM	0.553 µM	3.46 µM	2.99 µM	1.91 µM	2.92 µM	2.34 µM	1.48 µM	1.9 µM	2.25
NC(N)=N/N=C(/c1ccccc1)c1ccc(Cl)cc1	> 100 µM	> 100 µM	28.7 µM	> 100 µM	> 100 µM	12.1 µM	> 100 µM	> 100 µM	> 100 µM	9.27 µM	> 100 µM	3.94 µM	4.71 µM	36.4 µM	16 µM	2.88 µM	13.9 µM	5.8 µM	50.5 µM	2.74
Nc1nc(Cl)c(N=Nc2ccc(Cl)cc2)c(NCC2(CO)CC(OCc3ccccc3)C2)n1 (centres undefined)	> 100 µM and 46 µM		91.8 µM and > 100 µM and 44.1 µM	16.3 µM and > 100 µM and 23.9 µM		45 µM and > 100 µM and 21.5 µM	3.68 µM and 14.2 µM and 5.52 µM	> 100 µM and 20.1 µM	46 µM and > 100 µM and 23.9 µM	14.2 µM and > 100 µM and 59.2 µM	32.5 µM and > 95.4 µM and 15.6 µM	2.95 µM and 6.33 µM and 3.1 µM	30.9 µM and > 100 µM and 20.2 µM	3.69 µM and 16.1 µM and 4.39 µM	5.31 µM and 11.1 µM and 2.12 µM	5.88 µM and 19.2 µM and 6.07 µM	0.768 µM		4.98 µM and 45.7 µM and 8.82 µM	
COc1cc(C2CC(c3ccc(Nc4ccnc5cc(Cl)ccc45)cc3)=NN2C=O)cc(OC)c1OC (centres undefined)	8.28 µM	6.49 µM	49.5 µM	> 100 µM	4.8 µM	3.4 µM	26.5 µM	> 100 µM	3.97 µM	5.4 µM	2.84 µM	2.58 µM	15.3 µM	9.98 µM	2.31 µM	1.91 µM	5.47 µM	3.56 µM	1.92 µM	2.1
COc1ccc(Cn2cnc3cc(C(=O)Nc4cccc5ccccc45)ccc32)c(OC)c1	> 100 µM	> 100 µM	0.0771 µM	> 100 µM	> 100 µM	0.0776 µM	> 100 µM	> 51.1 µM	6.53 µM	0.0358 µM	39 µM	0.0228 µM	0.0226 µM	0.0603 µM	0.045 µM	0.0267 µM	0.0387 µM	0.0443 µM	0.0603 µM	0.0173
O=C1Nc2ccccc2/C1=C/c1cn(C(=O)c2c(Cl)cccc2Cl)c2ccccc12	24.8 µM	8.13 µM	4.32 µM	37.4 µM	12.7 µM	3.65 µM	5.77 µM	22.6 µM	8.95 µM	7.1 µM	5 µM	2.25 µM	1.25 µM	4.12 µM	3.28 µM	1.65 µM	1.89 µM	3.46 µM	2.4 µM	2.24
O[C@@H]1CCCN1Cc1cc2cc3c(cc2c2cc(OCc4ccccc4)ccc12)OCO3	4.37 µM	7.08 µM	25.3 µM	17.6 µM	3.69 µM	14.5 µM	12.6 µM	12.3 µM	26.4 µM	4.29 µM	2.17 µM	2.63 µM	10.5 µM	3.93 µM	1.89 µM	3.73 µM	3.42 µM	3.47 µM	11 µM	2
O=C1/C(=C/c2ccc(Cl)cc2)CN(Cc2cn(CCNc3ccnc4cc(Cl)ccc34)nn2)C/C1=C\c1ccc(Cl)cc1	3.02 µM	0.815 µM	2.37 µM	1.43 µM	0.616 µM	0.915 µM	1.57 µM	1.06 µM	1.44 µM	1.08 µM	1.59 µM	0.245 µM	1.14 µM	0.367 µM	0.247 µM	0.311 µM	0.346 µM	0.308 µM	0.488 µM	0.326
O=C(NCC(=O)N1CC[C@H](NC2CCC(O)(c3ccc(-c4ncccn4)cn3)CC2)C1)c1cccc(C(F)(F)F)c1 (some centres undefined)	> 100 µM	> 100 µM	> 100 µM	> 100 µM	> 100 µM	> 100 µM	> 100 µM	> 100 µM	> 100 µM	> 100 µM	40.8 µM	25.4 µM	24.5 µM	> 100 µM	> 100 µM	94.9 µM	45.7 µM	52.8 µM	34.9 µM	> 100
Cc1ccc(NSc2ccccc2[N+](=O)[O-])cc1	36.7 µM	36 µM	3.75 µM	36.3 µM	16.3 µM	7.4 µM	25.3 µM	14.2 µM	23 µM	0.171 µM	17.4 µM	0.113 µM	0.186 µM	2.91 µM	1.5 µM	0.503 µM	1.36 µM	0.155 µM	2.21 µM	0.0678
COc1cc(Nc2ncc3c(C)nc(-c4cccc(Oc5ccccc5)c4)n3n2)cc(OC)c1OC	> 25 µM	> 21.4 µM	> 22.9 µM	> 25 µM	> 25 µM	11.2 µM	> 25 µM	> 25 µM	> 25 µM	> 25 µM	10.4 µM	5.99 µM	2.03 µM	5.15 µM	6.2 µM	4.64 µM	1.24 µM	2.5 µM	6.86 µM	6.26
O=C1Nc2ccccc2/C1=C/c1ccccc1	29 µM	48.1 µM	30.5 µM	66.1 µM	28.4 µM	33.7 µM	> 100 µM	35.4 µM	31.2 µM	33.2 µM										
CC(C)=CCc1ccc(O)c(=O)cc1C(C)C	> 100 µM	> 100 µM	64.7 µM	> 100 µM	5.4 µM	> 83.4 µM	2.4 µM	> 100 µM	36.4 µM	> 100 µM	1.59 µM	0.465 µM	5.18 µM	0.413 µM	0.816 µM	0.654 µM	0.29 µM	0.362 µM	1.05 µM	0.814
O=C1CSC(=S)N1Cc1cccnc1	21.9 µM	> 100 µM	56.2 µM	38 µM	11.2 µM	12.1 µM	33.4 µM	11.8 µM	44.3 µM	17.1 µM	5.97 µM	3.56 µM	22.7 µM	11.3 µM	3.67 µM	3.39 µM	12.4 µM	2.87 µM	18.6 µM	3.53
C/C=C(\CCC1NCCc2c1[nH]c1ccccc21)[Si](C)(C)C (centres undefined)	10.7 µM and 3.71 µM	18.4 µM and 8.42 µM	14 µM and 9.88 µM	19.5 µM and 8.79 µM	9.79 µM and 3.34 µM	2.39 µM and 7.41 µM	21.4 µM and 11 µM	32.7 µM and 5.08 µM	23.2 µM	11.1 µM	5.75 µM and 1.7 µM	8.12 µM and 2.7 µM			5.26 µM and 1.81 µM	0.413 µM and 2.91 µM	7.02 µM and 2.72 µM			
CS(=O)(=O)Nc1cccc(-c2ccc3c(NC(=O)C4CC4)n[nH]c3c2)c1	> 25 µM	> 25 µM	> 25 µM	> 25 µM	> 25 µM	1.96 µM	> 25 µM	> 25 µM	> 25 µM	0.944 µM	> 25 µM	0.355 µM	4.32 µM	6.26 µM	12.2 µM	0.641 µM	> 20.6 µM	7.29 µM	5.86 µM	0.165
Cc1[nH]n(-c2ccc(S(=O)(=O)O)cc2)c(=O)c1N=Nc1ccccc1	> 100 µM	> 100 µM	> 100 µM	> 100 µM	> 100 µM	> 100 µM	> 100 µM	> 100 µM	> 100 µM	> 100 µM										
c1ccc2c(Nc3ccc(Oc4ccc(Nc5c6ccccc6nc6ccccc56)cc4)cc3)c3ccccc3nc2c1	3.2 µM and 0.524 µM	0.323 µM	3.85 µM	0.526 µM	0.0305 µM	0.366 µM	3.22 µM and 3.01 µM	0.0358 µM and 0.0379 µM	4.54 µM and 4.4 µM	0.4 µM	1.73 µM and 0.245 µM	0.126 µM					1.82 µM	0.019 µM and 0.017 µM	2.07 µM and 1.87 µM	

From PubChem BioAssay (NCI)
